Among the data in patent EP3057951B1, “METHYLENE LINKED QUINOLINYL MODULATORS OF ROR-GAMMA-T” (Janssen Pharmaceutica NV, priority 2013, dated 2015) are Kd values, retold here.

This test concerns the target T1, wild type human RORγt ligand binding domain (RORyt LBD) (Homo sapiens, UniProt P51449).
T1 construct: His-tag (N); TurboTEV protease cleavage site (ENLYFQG) (N); made in house; host or cells: E. coli (pHIS1, modified pET vector)
T1 sequence (P51449 258-518): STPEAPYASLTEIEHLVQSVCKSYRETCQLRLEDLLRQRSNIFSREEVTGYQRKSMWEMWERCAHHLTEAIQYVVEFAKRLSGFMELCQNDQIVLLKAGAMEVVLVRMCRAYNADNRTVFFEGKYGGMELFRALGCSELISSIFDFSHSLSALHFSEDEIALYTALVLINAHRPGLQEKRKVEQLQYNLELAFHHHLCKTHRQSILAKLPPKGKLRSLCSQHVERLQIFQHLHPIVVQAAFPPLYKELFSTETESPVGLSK
As to the kind of experiment: RORγt ThermoFluor assay (thermal shift, binding affinity KD).

Each structure is given as a SMILES string.

As a reminder, the Kd is the free concentration of one partner at which half of the binding sites on the other are occupied at equilibrium, for simple one-to-one binding. Take `CCc1nc2ccc(C(O)(c3cnc(C)n3C)C3CCOCC3)cc2c(Cl)c1Cc1ccc(C(F)(F)F)cc1` (single isomer, unassigned) [Example 34b, (4-Chloro-2-ethyl-3-(4-(trifluoromethyl)benzyl)quinolin-6-yl)(1,2-dimethyl-1H-imidazol-5-yl)(tetrahydro-2H-pyran-4-yl)methanol]: the dissociation constant (Kd) stood at 0.03 nM. The same measure for `CCc1nc2ccc(C(O)(c3cnc(C)n3C)C3CCOCC3)cc2c(Cl)c1Cc1ccc(C(F)(F)F)cc1` (single isomer, unassigned) [Example 34c, (4-Chloro-2-ethyl-3-(4-(trifluoromethyl)benzyl)quinolin-6-yl)(1,2-dimethyl-1H-imidazol-5-yl)(tetrahydro-2H-pyran-4-yl)methanol]: 6.8 nM.

As to `CCc1nc2ccc(C(O)(c3cnnn3C)C3CN(C(C)=O)C3)cc2c(C#N)c1Cc1ccc(C(F)(F)F)cc1` (single isomer, unassigned) [Example 36, 6-((1-Acetylazetidin-3-yl)(hydroxy)(1-methyl-1H-1,2,3-triazol-5-yl)methyl)-2-ethyl-3-(4-(trifluoromethyl)benzyl)quinoline-4-carbonitrile], the equilibrium dissociation constant (Kd) was 0.73 nM. The same measure for `CCc1nc2ccc(C(O)(c3cnnn3C)C3CN(C(C)=O)C3)cc2c(C#N)c1Cc1ccc(C(F)(F)F)cc1` (single isomer, unassigned) [Example 37, 6-((1-Acetylazetidin-3-yl)(hydroxy)(1-methyl-1H-1,2,3-triazol-5-yl)methyl)-2-ethyl-3-(4-(trifluoromethyl)benzyl)quinoline4-carbonitrile]: 1.9 nM; for `COc1nc2ccc(C(O)(c3ccc(C)nc3C)c3cnc(C)n3C)cc2c(Cl)c1Cc1ccc(C(F)(F)F)nc1` (single isomer, unassigned) [Example 42b, (4-Chloro-2-methoxy-3-((6-(trifluoromethyl)pyridin-3-yl)methyl)quinolin-6-yl)(1,2-dimethyl-1H-imidazol-5-yl)(2,6-dimethylpyridin-3-yl)methanol]: 970 nM. The same measure for `COc1nc2ccc(C(O)(c3ccc(C)nc3C)c3cnc(C)n3C)cc2c(Cl)c1Cc1ccc(C(F)(F)F)nc1` (single isomer, unassigned) [Example 42c, (4-Chloro-2-methoxy-3-((6-(trifluoromethyl)pyridin-3-yl)methyl)quinolin-6-yl)(1,2-dimethyl-1H-imidazol-5-yl)(2,6-dimethylpyridin-3-yl)methanol]: 0.18 nM; for `COc1nc2ccc(C(O)(c3ccc(C)nc3C)c3cnc(C)n3C)cc2c(Cl)c1Cc1ccc(C(F)(F)F)cc1` (single isomer, unassigned) [Example 57b, (4-Chloro-2-methoxy-3-(4-(trifluoromethyl)benzyl)quinolin-6-yl)(1,2-dimethyl-1H-imidazol-5-yl)(2,6-dimethylpyridin-3-yl)methanol]: 180 nM.

In the case of `COc1nc2ccc(C(O)(c3ccc(C)nc3C)c3cnc(C)n3C)cc2c(Cl)c1Cc1ccc(C(F)(F)F)cc1` (single isomer, unassigned) [Example 57c, (4-Chloro-2-methoxy-3-(4-(trifluoromethyl)benzyl)quinolin-6-yl)(1,2-dimethyl-1H-imidazol-5-yl)(2,6-dimethylpyridin-3-yl)methanol], the Kd was 0.02 nM.

Consider `COc1nc2ccc(C(O)(c3ccccn3)c3cncn3C)cc2c(Cl)c1Cc1ccc(S(C)(=O)=O)cc1` (single isomer, unassigned) [Example 58b, (4-Chloro-2-methoxy-3-(4-(methylsulfonyl)benzyl)quinolin-6-yl)(1-methyl-1H-imidazol-5-yl)(pyridin-2-yl)methanol], for which the Kd was 3600 nM. The same measure for `COc1nc2ccc(C(O)(c3ccccn3)c3cncn3C)cc2c(Cl)c1Cc1ccc(S(C)(=O)=O)cc1` (single isomer, unassigned) [Example 58c, (4-Chloro-2-methoxy-3-(4-(methylsulfonyl)benzyl)quinolin-6-yl)(1-methyl-1H-imidazol-5-yl)(pyridin-2-yl)methanol]: 370 nM.
